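Assay format: 96-well plates, 48-hour exposure. Abbreviation: GI50, concentration required for 50% inhibition of growth. The concentration for full growth arrest is given as TGI.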
Tests used:
Experiment in all cases: DTP human tumour cell line panel, 48 h
MALME-3M melanoma = tested on: MALME-3M melanoma
EKVX NSCLC = tested on: EKVX NSCLC
SK-MEL-2 melanoma = tested on: SK-MEL-2 melanoma
A549 NSCLC = tested on: A549 NSCLC
SF-295 CNS = tested on: SF-295 CNS
HCT-15 colon = tested on: HCT-15 colon
UACC-62 melanoma = tested on: UACC-62 melanoma
SW-620 colon = tested on: SW-620 colon
HS 578T breast = tested on: HS 578T breast
SN12C renal = tested on: SN12C renal
BT-549 breast = tested on: BT-549 breast
HL-60(TB) leukemia = tested on: HL-60(TB) leukemia
UACC-257 melanoma = tested on: UACC-257 melanoma
HOP-92 NSCLC = tested on: HOP-92 NSCLC
NCI-H23 lung = tested on: NCI-H23 lung
OVCAR-3 ovarian = tested on: OVCAR-3 ovarian
DU-145 prostate = tested on: DU-145 prostate
KM12 colon = tested on: KM12 colon
A498 renal = tested on: A498 renal
UO-31 renal = tested on: UO-31 renal
SK-MEL-5 melanoma = tested on: SK-MEL-5 melanoma
MDA-MB-231 breast = tested on: MDA-MB-231 breast
U251 CNS = tested on: U251 CNS
RXF 393 renal = tested on: RXF 393 renal
MOLT-4 leukemia = tested on: MOLT-4 leukemia
CAKI-1 renal = tested on: CAKI-1 renal
MCF7 breast = tested on: MCF7 breast
SF-268 CNS = tested on: SF-268 CNS
SR leukemia = tested on: SR leukemia
NCI-H522 lung = tested on: NCI-H522 lung
ACHN renal = tested on: ACHN renal
HOP-62 NSCLC = tested on: HOP-62 NSCLC
M14 melanoma = tested on: M14 melanoma
SNB-19 CNS = tested on: SNB-19 CNS
MDA-MB-435 = tested on: MDA-MB-435
OVCAR-5 ovarian = tested on: OVCAR-5 ovarian
TK-10 renal = tested on: TK-10 renal
SNB-75 CNS = tested on: SNB-75 CNS
OVCAR-4 ovarian = tested on: OVCAR-4 ovarian
SF-539 CNS = tested on: SF-539 CNS
SK-OV-3 ovarian = tested on: SK-OV-3 ovarian
HCC-2998 colon = tested on: HCC-2998 colon
CCRF-CEM leukemia = tested on: CCRF-CEM leukemia
OVCAR-8 ovarian = tested on: OVCAR-8 ovarian
LOX IMVI melanoma = tested on: LOX IMVI melanoma
IGROV1 ovarian = tested on: IGROV1 ovarian
NCI/ADR-RES ovarian = tested on: NCI/ADR-RES ovarian
HCT-116 colon = tested on: HCT-116 colon
PC-3 prostate = tested on: PC-3 prostate
K-562 leukemia = tested on: K-562 leukemia
NCI-H460 lung = tested on: NCI-H460 lung
RPMI-8226 leukemia = tested on: RPMI-8226 leukemia
786-0 renal = tested on: 786-0 renal
HT29 colon = tested on: HT29 colon
NCI-H226 lung = tested on: NCI-H226 lung
T-47D breast = tested on: T-47D breast
COLO 205 colon = tested on: COLO 205 colon
SK-MEL-28 melanoma = tested on: SK-MEL-28 melanoma

## COc1cc2c(cc1I)-c1c(cc(OC)c(OC)c1OC)CC[C@@H]2NC(C)=O
MALME-3M melanoma
  GI50: 383 nM
  TGI: 32000 nM
EKVX NSCLC
  GI50: 2550 nM
  TGI: > 100000 nM
SK-MEL-2 melanoma
  GI50: 235 nM
  TGI: 858 nM
A549 NSCLC
  GI50: 577 nM
  TGI: > 51900 nM
SF-295 CNS
  GI50: 299 nM
  TGI: 3410 nM
HCT-15 colon
  GI50: 419 nM
  TGI: 16800 nM
UACC-62 melanoma
  GI50: 528 nM
  TGI: 30300 nM
SW-620 colon
  GI50: 312 nM
  TGI: 42200 nM
HS 578T breast
  GI50: 207 nM
  TGI: 593 nM
SN12C renal
  GI50: 589 nM
  TGI: 52000 nM
BT-549 breast
  GI50: 691 nM
  TGI: 3160 nM
HL-60(TB) leukemia
  GI50: 461 nM
UACC-257 melanoma
  GI50: 415 nM
  TGI: 60000 nM
HOP-92 NSCLC
  GI50: 987 nM
  TGI: 10700 nM
NCI-H23 lung
  GI50: 413 nM
  TGI: 5650 nM
OVCAR-3 ovarian
  GI50: 232 nM
  TGI: 572 nM
DU-145 prostate
  GI50: 317 nM
  TGI: 1030 nM
KM12 colon
  GI50: 390 nM
  TGI: 5600 nM
A498 renal
  GI50: 231 nM
  TGI: 725 nM
UO-31 renal
  GI50: 517 nM
  TGI: > 36800 nM
SK-MEL-5 melanoma
  GI50: 290 nM
  TGI: 1100 nM
MDA-MB-231 breast
  GI50: 834 nM
  TGI: 7210 nM
U251 CNS
  GI50: 412 nM
  TGI: 12200 nM
RXF 393 renal
  GI50: 211 nM
  TGI: 569 nM
MOLT-4 leukemia
  GI50: 672 nM
  TGI: 25800 nM
CAKI-1 renal
  GI50: 522 nM
  TGI: > 47000 nM
MCF7 breast
  GI50: 370 nM
  TGI: 20800 nM
SF-268 CNS
  GI50: 424 nM
  TGI: 6540 nM
SR leukemia
  GI50: 391 nM
  TGI: 34600 nM
NCI-H522 lung
  GI50: 178 nM
  TGI: 689 nM
ACHN renal
  GI50: 614 nM
  TGI: 33800 nM
HOP-62 NSCLC
  GI50: 556 nM
  TGI: > 33000 nM
M14 melanoma
  GI50: 283 nM
  TGI: 2650 nM
SNB-19 CNS
  GI50: 485 nM
  TGI: > 41000 nM
MDA-MB-435
  GI50: 213 nM
  TGI: 550 nM
OVCAR-5 ovarian
  GI50: 573 nM
  TGI: 39100 nM
TK-10 renal
  GI50: 607 nM
  TGI: 27300 nM
SNB-75 CNS
  GI50: 388 nM
  TGI: 32600 nM
OVCAR-4 ovarian
  GI50: 2240 nM
  TGI: > 100000 nM
SF-539 CNS
  GI50: 239 nM
  TGI: 737 nM
SK-OV-3 ovarian
  GI50: 416 nM
  TGI: 12600 nM
HCC-2998 colon
  GI50: 664 nM
  TGI: 6310 nM
CCRF-CEM leukemia
  GI50: 411 nM
  TGI: > 100000 nM
OVCAR-8 ovarian
  GI50: 526 nM
  TGI: 14200 nM
LOX IMVI melanoma
  GI50: 573 nM
  TGI: 18700 nM
IGROV1 ovarian
  GI50: 323 nM
  TGI: 5430 nM
NCI/ADR-RES ovarian
  GI50: 985 nM
  TGI: 6180 nM
HCT-116 colon
  GI50: 384 nM
  TGI: 7140 nM
PC-3 prostate
  GI50: 464 nM
  TGI: > 42200 nM
K-562 leukemia
  GI50: 385 nM
  TGI: 17800 nM
NCI-H460 lung
  GI50: 374 nM
  TGI: 3900 nM
RPMI-8226 leukemia
  GI50: 505 nM
  TGI: > 100000 nM
786-0 renal
  GI50: 434 nM
  TGI: 9260 nM
HT29 colon
  GI50: 294 nM
  TGI: 2670 nM
NCI-H226 lung
  GI50: 1460 nM
  TGI: 22000 nM
T-47D breast
  GI50: 366 nM
  TGI: > 100000 nM
COLO 205 colon
  GI50: 314 nM
  TGI: 1360 nM
SK-MEL-28 melanoma
  GI50: 344 nM
  TGI: 19100 nM
